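Values below derive from 48-hour exposures of cells grown in 96-well plates, with endpoints linearly interpolated between the two concentrations bracketing the appropriate inhibition level. GI50 = concentration required for 50% inhibition of growth.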 The source made the active and inactive calls. No stated cut-off is given here; in the data, active = GI50 up to about 1.1 µM and inactive = higher.
Experiments:
Assay in all cases: growth of human tumour cells (NCI), 48 h
OVCAR-3 = tested on: OVCAR-3
CAKI-1 = tested on: CAKI-1
HOP-62 = tested on: HOP-62
SK-MEL-5 = tested on: SK-MEL-5
HCC 2998 = tested on: HCC 2998
M14 = tested on: M14
SF-539 = tested on: SF-539
SNB-75 = tested on: SNB-75
IGROV-1 = tested on: IGROV-1
UO-31 = tested on: UO-31
HL-60 = tested on: HL-60
UACC-62 = tested on: UACC-62
K562 = tested on: K562
OVCAR-5 = tested on: OVCAR-5
HCT-116 = tested on: HCT-116
UACC-257 = tested on: UACC-257
ACHN = tested on: ACHN
SN12C = tested on: SN12C
KM12 = tested on: KM12

Measured: GI50

COC(=O)N1C=Cc2c(c(C)c3c([nH]c4ccccc43)c2C)C1C (stereo not given)
inactive: OVCAR-3 16.3 µM | CAKI-1 18.1 µM | HOP-62 18.2 µM | SK-MEL-5 15.3 µM | HCC 2998 16.8 µM | M14 29.6 µM | SF-539 17.1 µM | SNB-75 15.3 µM | IGROV-1 25.2 µM | UO-31 18.5 µM | HL-60 19.2 µM | UACC-62 18 µM | K562 6.19 µM | OVCAR-5 17.2 µM | HCT-116 12.9 µM | UACC-257 17.3 µM | ACHN > 10 µM

CN(C)CCNC(=O)c1cccc2c1nc(-c1cccnc1)c1ccccc12
inactive: OVCAR-3 10.1 µM | CAKI-1 2.45 µM | HOP-62 6.24 µM | SK-MEL-5 3.37 µM | HCC 2998 6.9 µM | M14 6.67 µM | SF-539 2.65 µM | SN12C 3.3 µM | KM12 6.78 µM | SNB-75 9.35 µM | IGROV-1 1.73 µM | UO-31 2.69 µM | HL-60 1.97 µM | UACC-62 3.57 µM | K562 5.98 µM | OVCAR-5 8.83 µM | HCT-116 2.95 µM | UACC-257 3.89 µM | ACHN 2.58 µM

CC(C)CC(N/C=C1/N=C(c2ccccc2)OC1=O)C(=O)O (stereo not given)
inactive: OVCAR-3 > 100 µM | CAKI-1 > 100 µM | HOP-62 > 100 µM | SK-MEL-5 > 100 µM | HCC 2998 > 100 µM | M14 > 100 µM | SF-539 > 100 µM | SN12C > 100 µM | KM12 > 100 µM | SNB-75 37.3 µM | IGROV-1 > 100 µM | UO-31 > 100 µM | HL-60 > 100 µM | UACC-62 > 100 µM | K562 > 100 µM | OVCAR-5 > 100 µM | HCT-116 > 100 µM | UACC-257 > 100 µM | ACHN > 100 µM

COC(=O)c1s/c(=N\C(=S)N(C)C)n(-c2ccccc2)c1C(=O)OC
inactive: OVCAR-3 > 100 µM | CAKI-1 > 100 µM | HOP-62 > 100 µM | SK-MEL-5 > 100 µM | HCC 2998 > 100 µM | M14 > 100 µM | SF-539 > 100 µM | SN12C > 100 µM | KM12 > 100 µM | SNB-75 52.2 µM | IGROV-1 > 100 µM | UO-31 > 100 µM | HL-60 32.6 µM | UACC-62 > 100 µM | K562 > 100 µM | OVCAR-5 > 100 µM | HCT-116 > 100 µM | UACC-257 > 100 µM | ACHN > 100 µM

CC1(O)C=CC(=O)C=C1
inactive: OVCAR-3 24.2 µM | CAKI-1 30.8 µM | HOP-62 > 52.6 µM | SK-MEL-5 > 55 µM | HCC 2998 > 71.6 µM | M14 20.1 µM | SF-539 23.5 µM | SN12C 52.7 µM | KM12 > 48.2 µM | SNB-75 > 56.1 µM | IGROV-1 26.8 µM | UO-31 36.6 µM | HL-60 16.4 µM | UACC-62 18.5 µM | K562 33.5 µM | OVCAR-5 98.2 µM | HCT-116 60.1 µM | UACC-257 17.7 µM | ACHN 27.5 µM

O=C(NNc1ccc([N+](=O)[O-])cc1)C1OC(CO)C(O)C1O (stereo not given)
inactive: OVCAR-3 > 100 µM | CAKI-1 > 100 µM | HOP-62 > 100 µM | SK-MEL-5 > 100 µM | HCC 2998 > 100 µM | M14 > 100 µM | SF-539 > 100 µM | SN12C > 100 µM | KM12 81.8 µM | SNB-75 > 100 µM | IGROV-1 > 100 µM | UO-31 > 100 µM | HL-60 58.9 µM | UACC-62 > 100 µM | K562 67 µM | OVCAR-5 > 100 µM | HCT-116 > 100 µM | UACC-257 > 100 µM | ACHN > 100 µM

COc1cc(C2C(C(=O)Nc3ccccc3C)=C(C)NC(C)=C2C(=O)Nc2ccccc2C)ccc1O
inactive: OVCAR-3 > 100 µM | CAKI-1 > 100 µM | HOP-62 > 100 µM | SK-MEL-5 > 100 µM | HCC 2998 > 100 µM | M14 > 100 µM | SF-539 > 100 µM | SN12C > 100 µM | KM12 > 100 µM | SNB-75 56.6 µM | IGROV-1 > 100 µM | UO-31 > 100 µM | HL-60 60.4 µM | UACC-62 > 100 µM | K562 > 100 µM | OVCAR-5 > 100 µM | HCT-116 > 100 µM | UACC-257 > 100 µM | ACHN > 100 µM

CS(=O)(=O)N/N=C/CN1C(=O)c2ccccc2C1=O
inactive: OVCAR-3 > 100 µM | CAKI-1 > 100 µM | HOP-62 > 100 µM | SK-MEL-5 > 100 µM | HCC 2998 > 100 µM | M14 > 100 µM | SF-539 > 100 µM | SN12C > 100 µM | KM12 > 100 µM | SNB-75 > 100 µM | IGROV-1 > 100 µM | UO-31 > 100 µM | HL-60 > 100 µM | UACC-62 > 100 µM | K562 > 100 µM | OVCAR-5 > 100 µM | HCT-116 > 100 µM | UACC-257 > 100 µM | ACHN > 100 µM

CN1c2ccccc2N(C(=O)c2ccc([N+](=O)[O-])cc2)C(CC(=O)O)c2cccn21 (stereo not given)
inactive: OVCAR-3 > 100 µM | CAKI-1 > 100 µM | HOP-62 > 100 µM | SK-MEL-5 > 100 µM | HCC 2998 > 100 µM | M14 > 100 µM | SF-539 > 100 µM | SN12C > 100 µM | KM12 > 100 µM | SNB-75 > 100 µM | IGROV-1 > 100 µM | UO-31 > 100 µM | HL-60 > 100 µM | UACC-62 > 100 µM | K562 > 100 µM | OVCAR-5 > 100 µM | UACC-257 > 100 µM | ACHN > 100 µM

COC1O[C@H]2CCN(C(=O)OCc3ccccc3)[C@H]2[C@H]1OCc1ccccc1 (stereo not given in full)
inactive: OVCAR-3 42.6 µM | CAKI-1 40.3 µM | HOP-62 > 100 µM | SK-MEL-5 24.1 µM | HCC 2998 47.6 µM | M14 46.3 µM | SF-539 > 100 µM | SN12C > 100 µM | SNB-75 41.9 µM | IGROV-1 49.5 µM | UO-31 29.2 µM | HL-60 28.4 µM | UACC-62 21.5 µM | K562 30.5 µM | OVCAR-5 > 100 µM | HCT-116 46.6 µM | UACC-257 43.8 µM | ACHN 39.6 µM

COC(=O)C1=C(O)c2cc3c(cc2[C@H](c2cc(OC)c(OC)c(OC)c2)C1C(=O)OC)OCO3 (stereo not given in full)
inactive: OVCAR-3 30.4 µM | CAKI-1 25.2 µM | HOP-62 > 100 µM | SK-MEL-5 32.8 µM | HCC 2998 > 100 µM | M14 89.5 µM | SF-539 20.7 µM | SN12C 25.5 µM | KM12 35.2 µM | SNB-75 22.8 µM | IGROV-1 48.6 µM | UO-31 42.3 µM | HL-60 > 100 µM | UACC-62 30.1 µM | K562 72.1 µM | OVCAR-5 > 100 µM | HCT-116 34.7 µM | UACC-257 47.3 µM | ACHN 22.1 µM

— ChEMBL document CHEMBL1201862, “PubChem BioAssay data set” (2004)
